Results published in EP4707280A1, “1,4-CINEOLE DERIVATIVE AND INTERMEDIATE THEREOF, HERBICIDE CONTAINING SAID DERIVATIVE AS ACTIVE INGREDIENT, METHOD FOR USING HERBICIDE, AND METHOD FOR PREPARING AGROCHEMICAL COMPOSITION” (HOKKO CHEMICAL INDUSTRY CO., LTD., priority 2023, dated 2024).

Experiments:
Assay type in all cases: in vivo
Echinochloa crus-galli [1] = assay: Test Example 4: herbicidal effect test by stem and leaf treatment in upland field; conditions: 120 g per 10 ares, sprayed seven days after sowing, upland soil, 14 days after application; for inhibition at 1200 g/ha: Echinochloa crus-galli, read-out: weed inhibition rate
Digitaria ciliaris [2] = assay: as above; conditions: 120 g per 10 ares, sprayed seven days after sowing, upland soil, 14 days after application; for inhibition at 1200 g/ha: Digitaria ciliaris, read-out: weed inhibition rate
Digitaria ciliaris [3] = assay: Test Example 8: herbicidal effect test by stem and leaf treatment in upland field (low dose); conditions: 7.5 g per 10 ares, sprayed seven days after sowing, upland soil, 14 days after application; for inhibition at 75 g/ha: Digitaria ciliaris, read-out: weed inhibition rate
Experimental: (§1) The present test was conducted in duplicate for each chemical concentration group, and the weed inhibition rate (%) was determined 14 days after chemical application using the following formula (Math. 1). [formula]
(§2) Pots with an area of 36 cm^2 were filled with upland soil (alluvial loam), twenty seeds each of weeds of Digitaria ciliaris, and Echinochloa crus-galli were uniformly mixed with the top 1 cm layer of soil and the surface was lightly pressed down. Seven days after sowing, an emulsifiable concentrate prepared according to Formulation Example 5 using the compound shown below was diluted with water, and the diluted solution was sprayed onto the soil surface at a rate of 100 liters per 10 ares. The amount of the active ingredient to be applied was equivalent to 7.5 g per 10 ares. Fourteen days after chemical application, the herbicidal effect was evaluated according to the same criteria as in Test Example 1.

Digitaria ciliaris [4] = assay: Test Example 3: herbicidal effect test by soil application in upland field; conditions: 120 g per 10 ares, sprayed one day after sowing, 14 days after application; for inhibition at 1200 g/ha: Digitaria ciliaris, read-out: weed inhibition rate
Method in brief: (§3)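 Weed inhibition (%) was assessed 14 days after treatment, in duplicate per concentration group. Seeds had been mixed into the upper 1 cm of upland alluvial loam, and the soil surface was sprayed one day later with the diluted emulsifiable concentrate at 120 g active ingredient per 10 ares.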

Echinochloa crus-galli [5] = assay: as above; conditions: 120 g per 10 ares, sprayed one day after sowing, 14 days after application; for inhibition at 1200 g/ha: Echinochloa crus-galli, read-out: weed inhibition rate
Method in brief: as §3

[6] = system: Echinochloa crus-galli var. formosensis; assay: Test Example 2: herbicidal effect test by application during growth period of paddy rice; conditions: 120 g per 10 ares, applied seven days after sowing, flooded pots, 14 days after application; for inhibition at 1200 g/ha: Echinochloa crus-galli, read-out: weed inhibition rate
Method in brief: (§4)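 Steps: puddle fertilized paddy soil; sow 30 seeds of each weed at 0–1 cm; flood to roughly 3 cm and keep in a glasshouse; at day 7 drop in diluted emulsifiable concentrate (120 g a.i. per 10 ares); score inhibition (%) 14 days later, two replicates.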

[7] = system: Echinochloa crus-galli var. formosensis; assay: Test Example 1: herbicidal effect test by soil application in paddy rice; conditions: 120 g active ingredient per 10 ares, applied immediately after sowing, flooded pots, 14 days after application; for pest or weed control at 1200 g/ha: Echinochloa crus-galli, soil, 336 h, read-out: weed inhibition rate
Method in brief: (§5)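 Flooded-pot paddy assay: sow at 0–1 cm, flood to about 3 cm, then apply diluted emulsifiable concentrate by dropper, 120 g a.i. per 10 ares; greenhouse-grown.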

[8] = system: Echinochloa crus-galli var. formosensis; assay: Test Example 5: herbicidal effect test by soil application in paddy rice (low dose); conditions: Echinochloa crus-galli, soil, 336 h; 7.5 g per 10 ares; applied immediately after sowing, flooded pots; 14 days after application; read-out: weed inhibition rate
Experimental: as §1
Wagner pots with an area of […] were filled with paddy soil, followed by addition of water and incorporation of chemical fertilizer (N:P:K = 16:16:16), after which puddling was performed. After that, seeds of Echinochloa crus-galli var. formosensis, broad-leaved weeds (Monochoria vaginalis), and Scirpus juncoides were sown at a depth of 0 cm to 1 cm, 30 seeds each. Immediately after sowing, the pots were flooded and a water depth of approximately 3 cm was maintained. Subsequent management was conducted in a glass greenhouse. Immediately thereafter, an emulsifiable concentrate prepared according to Formulation Example 5 using the compound shown below was diluted with water, and a specified amount of the diluted solution was applied by dropper. The amount of the active ingredient to be applied was equivalent to 7.5 g per 10 ares. […]

Echinochloa crus-galli [9] = assay: Test Example 8: herbicidal effect test by stem and leaf treatment in upland field (low dose); conditions: Echinochloa crus-galli; 7.5 g per 10 ares; sprayed seven days after sowing, upland soil; 14 days after application; read-out: weed inhibition rate
Experimental: as §1, §2

[10] = system: Echinochloa crus-galli var. formosensis; assay: Test Example 6: herbicidal effect test by application during growth period of paddy rice (low dose); conditions: Echinochloa crus-galli; 7.5 g per 10 ares; applied seven days after sowing, flooded pots; 14 days after application; read-out: weed inhibition rate
Experimental: as §1
Wagner pots with an area of […] were filled with paddy soil, followed by addition of water and incorporation of chemical fertilizer (N:P:K = 16:16:16), after which puddling was performed. After that, seeds of Echinochloa crus-galli var. formosensis, broad-leaved weeds (Monochoria vaginalis), and Scirpus juncoides were sown at a depth of 0 cm to 1 cm, 30 seeds each. Immediately after sowing, the pots were flooded and a water depth of approximately 3 cm was maintained. Subsequent management was conducted in a glass greenhouse. Seven days after sowing, an emulsifiable concentrate prepared according to Formulation Example 5 using the compound shown below was diluted with water, and a specified amount of the diluted solution was applied by dropper. The amount of the active ingredient to be applied was equivalent to 7.5 g per 10 ares. The test was conducted in duplicate for each chemical concentration group, and the herbicidal effect was evaluated 14 days after chemical application using the same criteria as in Test Example 1.

Scirpus juncoides [11] = assay: Test Example 2: herbicidal effect test by application during growth period of paddy rice; conditions: Schoenoplectiella juncoides; 120 g per 10 ares; applied seven days after sowing, flooded pots; 14 days after application; read-out: weed inhibition rate
Method in brief: as §4

Scirpus juncoides [12] = assay: Test Example 1: herbicidal effect test by soil application in paddy rice; conditions: Schoenoplectiella juncoides, soil, 336 h; 120 g active ingredient per 10 ares; applied immediately after sowing, flooded pots; 14 days after application; read-out: weed inhibition rate
Method in brief: as §5

CC(C)[C@]12C[C@@H](OCc3ccccc3C(F)(F)F)[C@](C)(C[C@@H]1Br)O2 [1-700, (1S,2R,4R,5S)-5-bromo-l-methyl-4-isopropyl-2-[[2-(trifluoromethyl)phenyl]methoxy]-7-oxabicyclo[2.2.1]heptane]
≥ 80%: weed inhibition rate (Echinochloa crus-galli [1]) | weed inhibition rate (Digitaria ciliaris [2]) | weed inhibition rate (Digitaria ciliaris [3]) | weed inhibition rate (Digitaria ciliaris [4]) | weed inhibition rate (Echinochloa crus-galli [5]) | weed inhibition rate [6] | weed inhibition rate [7]

Cc1cccc(C)c1CO[C@@H]1C[C@]2(C(C)C)O[C@@]1(C)C[C@@H]2Br [1-17, (1S,2R,4R,5S)-5-bromo-2-[(2,6-dimethylphenyl)methoxy]-1-methyl-4-isopropyl-7-oxabicyclo[2.2.1]heptane]
≥ 80%: inhibition at 75 g/ha [8] | inhibition at 1200 g/ha (Echinochloa crus-galli [1]) | inhibition at 1200 g/ha (Digitaria ciliaris [2]) | inhibition at 75 g/ha (Echinochloa crus-galli [9]) | inhibition at 1200 g/ha (Digitaria ciliaris [4]) | inhibition at 1200 g/ha (Echinochloa crus-galli [5]) | inhibition at 1200 g/ha [6] | pest or weed control at 1200 g/ha [7]

COC(=O)c1ccccc1CO[C@@H]1C[C@]2(C(C)C)O[C@@]1(C)C[C@@H]2Br [1-709, methyl 2-[[(1S,2R,4R,5S)-5-bromo-1-methyl-4-isopropyl-7-oxabicyclo[2.2.1]heptan-2-yl]oxymethyl]benzoate]
≥ 80%: inhibition at 1200 g/ha (Echinochloa crus-galli [1]) | inhibition at 1200 g/ha (Digitaria ciliaris [2]) | inhibition at 75 g/ha (Digitaria ciliaris [3]) | inhibition at 75 g/ha (Echinochloa crus-galli [9])

CC(C)[C@@]12C[C@H](OCc3ccccc3F)[C@@](C)(C[C@H]1Br)O2 [1-1028, (1R,2S,4S,5R)-5-bromo-2-[(2-fluorophenyl)methoxy]-1-methyl-4-isopropyl-7-oxabicyclo[2.2.1]heptane]
≥ 80%: inhibition at 1200 g/ha (Echinochloa crus-galli [1]) | inhibition at 1200 g/ha (Digitaria ciliaris [2]) | inhibition at 75 g/ha (Echinochloa crus-galli [9])

CC(C)[C@@]12C[C@H](OCc3ccccc3F)[C@@](C)(C[C@@H]1C)O2 [1-1222, (1R,2S,4S,5S)-2-[(2-fluorophenyl)methoxy]-1,5-dimethyl-4-isopropyl-7-oxabicyclo[2.2.1]heptane]
≥ 80%: inhibition at 1200 g/ha (Echinochloa crus-galli [1]) | inhibition at 75 g/ha (Echinochloa crus-galli [9])

CCC[C@]1(O)C[C@]2(C)O[C@@]1(C(C)C)C[C@H]2OCc1ccccc1F [1-934, (1R,2S,4S,5R)-5-[(2-fluorophenyl)methoxy]-1-isopropyl-4-methyl-2-propyl-7-oxabicyclo[2.2.1]heptan-2-ol]
≥ 80%: inhibition at 1200 g/ha (Echinochloa crus-galli [1]) | inhibition at 1200 g/ha (Digitaria ciliaris [2]) | inhibition at 75 g/ha (Echinochloa crus-galli [9]) | inhibition at 1200 g/ha [6]

CC#CCO[C@@H]1C[C@]2(C(C)C)O[C@@]1(C)C[C@@H]2Br [1-674, (1S,2R,4R,5S)-5-bromo-2-but-2-ynoxy-1-methyl-4-isopropyl-7-oxabicyclo[2.2.1]heptane]
≥ 80%: inhibition at 75 g/ha [8] | inhibition at 75 g/ha [10] | inhibition at 1200 g/ha (Echinochloa crus-galli [1]) | inhibition at 1200 g/ha (Digitaria ciliaris [2]) | inhibition at 1200 g/ha (Digitaria ciliaris [4]) | inhibition at 1200 g/ha (Echinochloa crus-galli [5]) | inhibition at 1200 g/ha (Scirpus juncoides [11]) | inhibition at 1200 g/ha [6] | pest or weed control at 1200 g/ha (Scirpus juncoides [12]) | pest or weed control at 1200 g/ha [7]

CC(C)[C@]12C[C@@H](OCC3CCCCC3)[C@](C)(C[C@@H]1I)O2 [1-736, (1R,2S,4S,5R)-5-(cyclohexylmethoxy)-2-iodo-1-isopropyl-4-methyl-7-oxabicyclo[2.2.1]heptane]
≥ 80%: inhibition at 75 g/ha [8] | inhibition at 75 g/ha [10] | inhibition at 1200 g/ha (Echinochloa crus-galli [1]) | inhibition at 1200 g/ha (Digitaria ciliaris [2]) | inhibition at 1200 g/ha (Digitaria ciliaris [4]) | inhibition at 1200 g/ha (Echinochloa crus-galli [5]) | inhibition at 1200 g/ha (Scirpus juncoides [11]) | inhibition at 1200 g/ha [6] | pest or weed control at 1200 g/ha (Scirpus juncoides [12]) | pest or weed control at 1200 g/ha [7]

CC(C)[C@@]12C[C@H](OCc3ccccc3F)[C@@](C)(C[C@H]1C)O2 [1-1221, (1R,2S,4S,5R)-2-[(2-fluorophenyl)methoxy]-1,5-dimethyl-4-isopropyl-7-oxabicyclo[2.2.1]heptane]
≥ 80%: inhibition at 1200 g/ha (Digitaria ciliaris [2]) | inhibition at 75 g/ha (Digitaria ciliaris [3])

CC(C)[C@]12C=C[C@](C)(O1)[C@H](OCc1ccccn1)C2 [3-738, 2-[[(1S,2R,4R)-1-methyl-4-isopropyl-7-oxabicyclo[2.2.1]hept-5-en-2-yl]oxymethyl]pyridine]
≥ 80%: inhibition at 1200 g/ha (Echinochloa crus-galli [1]) | inhibition at 1200 g/ha (Digitaria ciliaris [2]) | inhibition at 1200 g/ha (Digitaria ciliaris [4]) | inhibition at 1200 g/ha (Echinochloa crus-galli [5]) | inhibition at 1200 g/ha (Scirpus juncoides [11]) | inhibition at 1200 g/ha [6] | pest or weed control at 1200 g/ha (Scirpus juncoides [12]) | pest or weed control at 1200 g/ha [7]

CC(C)[C@]12C=C[C@](C)(O1)[C@H](OCc1c(Cl)cccc1Cl)C2 [3-732, (1R,4S,5R)-5-[(2,6-dichlorophenyl)methoxy]-4-methyl-1-isopropyl-7-oxabicyclo[2.2.1]hept-2-ene]
≥ 80%: inhibition at 1200 g/ha (Echinochloa crus-galli [1]) | inhibition at 1200 g/ha (Digitaria ciliaris [2]) | inhibition at 1200 g/ha (Digitaria ciliaris [4]) | inhibition at 1200 g/ha (Echinochloa crus-galli [5]) | inhibition at 1200 g/ha (Scirpus juncoides [11]) | inhibition at 1200 g/ha [6] | pest or weed control at 1200 g/ha (Scirpus juncoides [12]) | pest or weed control at 1200 g/ha [7]

CC(C)[C@]12C[C@@H](OCc3ccccc3C(=O)O)[C@](C)(C[C@@H]1Br)O2 [1-706, 2-[[(1S,2R,4R,5S)-5-bromo-1-methyl-4-isopropyl-7-oxabicyclo[2.2.1]heptan-2-yl]oxymethyl]benzoic acid]
≥ 80%: inhibition at 1200 g/ha (Echinochloa crus-galli [1]) | inhibition at 1200 g/ha (Digitaria ciliaris [2]) | inhibition at 75 g/ha (Digitaria ciliaris [3]) | inhibition at 75 g/ha (Echinochloa crus-galli [9])

CC(C)[C@@]12C=C[C@@](C)(O1)[C@@H](OCc1ccccc1)C2 [3-748, (1S,4R,5S)-4-methyl-5-phenylmethoxy-1-isopropyl-7-oxabicyclo[2.2.1]hept-2-ene]
≥ 80%: inhibition at 1200 g/ha (Echinochloa crus-galli [1]) | inhibition at 1200 g/ha (Digitaria ciliaris [2]) | inhibition at 1200 g/ha (Digitaria ciliaris [4]) | inhibition at 1200 g/ha (Echinochloa crus-galli [5]) | inhibition at 1200 g/ha (Scirpus juncoides [11]) | inhibition at 1200 g/ha [6] | pest or weed control at 1200 g/ha (Scirpus juncoides [12]) | pest or weed control at 1200 g/ha [7]

CC#CCO[C@@H]1C[C@]2(C(C)C)O[C@@]1(C)CC2Br (stereo partly drawn) [1-1336, (1S,2R,4R)-5-bromo-2-but-2-ynoxy-1-methyl-4-isopropyl-7-oxabicyclo[2.2.1]heptane]
≥ 80%: inhibition at 1200 g/ha (Echinochloa crus-galli [1]) | inhibition at 1200 g/ha (Digitaria ciliaris [2]) | inhibition at 1200 g/ha (Digitaria ciliaris [4]) | inhibition at 1200 g/ha (Echinochloa crus-galli [5]) | inhibition at 1200 g/ha (Scirpus juncoides [11]) | inhibition at 1200 g/ha [6] | pest or weed control at 1200 g/ha (Scirpus juncoides [12]) | pest or weed control at 1200 g/ha [7]
